In patent publication US20040023924A1, “Use of xyloglucan polymers and oligomers, and derivative compounds, as phytosanitary products and biofertilizers” (priority 2000, published 2004):

Tests used:
vine = assay: Induction of cold resistance in the vine (cold protection index after foliar spraying); type: in vivo, vine (variety Chenin); conditions: vine plants
Method: Plants originating from different vine varieties (Chenin, Grolleau, Carignan, Cabernet sauvignon, Cabernet Sauvignon, Pinot noir, Merlot, Chardonnay, Gamay etc.) are used for the study. Each sample, comprising 5 to 10 plants, is treated with foliar spraying at the end of the bud development (starting from vegetative stage 7 on the BBCH scale), or during the inflorescence development period (starting from vegetative stage 12) or at the start of flowering (as from stage 19), with the elicitor (oligomer: XXFG; derivative: 2′-fucosyl lactose) in solution at a variable dose (0.03 mg/l ≦dose≦3.3 mg/l; the spraying of 2.5 ml of solution per plant is carried out using a hand sprayer (deviation of +/−1%).
After treatment, the plants are exposed to cold stress of variable duration and intensity (for example, temperature varying from −2° C. to −5° C.; duration less than or equal to 240 minutes).
After exposure to the cold, the plants are placed in a climatic chamber at 20° C. with a 12-hour day/night alternation. […] The effects of the cold are evaluated by observing the foliar necroses induced by frost and the plants are kept for several months in order to monitor their subsequent development.
The proportion P (%) of foliar necroses observed 3 hours or 24 hours or 48 hours or 72 hours after the cold stress is counted, and the results are expressed by the protection index I=(100-P) %. […]

[1] = test system: glutathione-reductase (EC 1.6. 4.2); assay: Elicitation of glutathione-reductase activity in protoplasts; type: cell-based, Rubus fruticosus L.; conditions: for Optimal glutathione reductase elicitation response (100% = non-elicited controls): at the optimal dose
Source text: Preparation of Rubus fruticosus L. protoplasts according to Vargas-Rechia et al. (1998). The protoplast yield is of the order of 70 to 85% of the initial number of cells used; the viability of the protoplasts, of the order of 90 to 95%, was checked using Evans blue indicator.
Glutathione-reductase (GR) activity assay according to Jahnke L S et al. (1991):
GSSG (glutathione in oxidized form) is reduced to GSH (glutathione in reduced form) by the enzyme glutathione-reductase (EC 1.6. 4.2); the reaction is coupled with the oxidation of NADPH to NADP in the catalytic cycle (glutathione, glutathione-reductase, NADPH). The glutathione-reductase activity is measured by evaluating the formation of NADP in the medium, which is carried out by monitoring the absorbance reduction at 340 nm.
Test: 4.10^6 protoplasts in 1 ml of Tris-HCl buffer (pH 4.8) are incubated at 10° C., 15° C., 25° C. in the presence of the elicitor (0 to 100 μM): 2′-fucosyl lactose (compound A), xyloglucan XXFGol (compound B). After interaction for 10 minutes, an enzymatic extract is prepared according to Jahnke et al. (1991), and a 16.000 g aliquot of the supernatant (equivalent to 1 μg of proteins) is introduced into the pH 7.8 reaction medium (80 mM K2PO4, 500 μM GSSG, 150 μM NADPH, 200 μM DTPA) for the glutathione-reductase activity assay; the A340 recording is carried out for 1 minute using a Beckman D U 640 spectrophotometer.
Evaluation of the experimental data: The reaction rate is given by ΔA340 min^−1. At least three kinetic curves are plotted per experimental condition and per sample. One point on the graph corresponds to the value of the slope of the regression curve deduced from at least 6 kinetic curves.
The elicitation response is evaluated by measuring the formation of NADP at 340 nm. The 100% reference value corresponds to the NADP content in the controls (non-elicited protoplast suspensions).

## C[C@@H]1O[C@@H](O[C@H]2[C@H](O[C@H]3[C@H](O)[C@@H](O)[C@H](O)O[C@@H]3CO)O[C@H](CO)[C@H](O)[C@@H]2O)[C@@H](O)[C@H](O)[C@@H]1O [compound A, α-L-Fuc(1→2)β-D-Gal(1→4)β-D-Glc]
vine
  Cold-resistance-inducer effect, efficiency compared with XXFG: equal or slightly lower efficiency
[1]; 10° C.
  Elicitor dose of optimal glutathione reductase elicitation response: 25 nM
  Optimal glutathione reductase elicitation response (100% = non-elicited controls): 2500%
[1]; 15° C.
  Elicitor dose of optimal glutathione reductase elicitation response: 100 nM
  Optimal glutathione reductase elicitation response (100% = non-elicited controls): 780%
[1]; 25° C.
  Glutathione reductase elicitation response: no significant response
